The structures appear in SMILES notation. Read-outs that look alike come from different tables or passages of the source. Bounds are passed on as bounds.

In general, IC50 refers to the concentration at which inhibition is half-maximal. By EC50 is commonly meant the concentration at which the effect is half-maximal.

The target in experiment [1] is 6×HIS-tankyrase 1 (1091-1325) (Homo sapiens (Human), UniProt O95271). Put plainly: biochemical. Format: biochemical. Conditions: […] enzyme, 400 nM NAD, 60 minutes at room temperature; read-out: TNKS1 IP IC50.
Sequence of 6×HIS-tankyrase 1 (1091-1325) (O95271 1091-1325): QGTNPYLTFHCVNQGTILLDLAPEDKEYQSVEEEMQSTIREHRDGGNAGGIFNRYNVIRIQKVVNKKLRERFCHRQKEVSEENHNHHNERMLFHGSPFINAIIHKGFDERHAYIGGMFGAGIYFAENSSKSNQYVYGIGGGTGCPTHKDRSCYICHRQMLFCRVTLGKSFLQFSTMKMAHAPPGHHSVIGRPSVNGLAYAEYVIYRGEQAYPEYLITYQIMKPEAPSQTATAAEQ
The subject of experiment [2] is total β-catenin in SW480 colorectal cells. Put plainly: cells. Format: cell-based. The note with it: Homo sapiens. The procedure:
Total β-Catenin MSD 96-Well Plate Assay for SW480 Cells
SW480 colorectal cells were seeded at a density of 10,000/well in CellBIND 96-well plates (Corning catalog no. 3300) in 60 μL of normal growth medium (MEM alpha supplemented with 10% heat inactivated FBS, GlutaMAX, pyruvate, and 10 mM HEPES).
A 10-point, 3-fold dilution series for each TNKS inhibitor was constructed in a 96-well “stock” plate. […] The plates were incubated at 37° C. for 40 to 48 hours. The media was removed from the CellBIND plate via plate inversion and gentle shaking and the inverted plate was touched to a paper towel and immediately placed on ice. […] Plates containing cell lysates were sealed and shaken for one hour at 4° C. and then quickly frozen in a −80° C. for approximately 15 to 30 minutes followed by gradually thawing at 4° C. Finally, lysate containing plates were centrifuged @1000×g (2073 rpm) for 10 minutes at 4° C.
The sealed MSD plate was incubated overnight in a cold room with gentle shaking. The MSD plate was then blocked with 150 μL of Blocker “A” per well and incubated overnight at 4° C. with vigorous shaking. The blocked MSD plate was washed 4 times with 150 μL/well TBS-T wash buffer (150 mM NaCl, 50 mM Tris, pH 7.5, 0.02% Tween-20). Cell lysates (75 μL) were transferred to prepared MSD plates and incubated at 4° C. ON with gentle shaking. […] The detection antibody was incubated for 1 hour at room temperature with vigorous shaking after which plates were washed 3 times with 150 μL/well TBS-T wash buffer. Plates were processed for analysis by the addition of 150 μL/well MSD Read 4× Buffer T with surfactant (catalog no. R92TC-2; diluted 1:3 in deionized water) and were read on the SECTOR Imager 6000.

The test system of the next experiment is Axin2 in SW480 cells. Put plainly: cells. It counts as cell-based. Conditions: Homo sapiens, read-out: Axin2 384 IF EC50 IP. As to the method: Using a VPrep, 10 μL of compound/controls was transferred from the compound plate to 60 μL in the cell plate (final 0.5% DMSO, 70 μL). The mixture was incubated for 24 hours at 37° C. at 5% CO2.
The extra media was tapped out. 50 μL of 4% paraformaldehyde (Fisher, AA433689M), 0.1% Triton (Sigma, X100-100 ML) in PBS were added, and the mixture was incubated for 15 minutes at room temperature. […] The extra media was tapped out and to this was added 50 μL of buffer containing Axin2 Antibody (Sigma, SAB1100677-200 µL) at 1:10000 in PBS, 0.1% Tween-20, 1% Normal Goat Serum. The mixture was incubated for 2 hours at room temperature or overnight at 4° C. The cells were then washed twice with PBS, 0.1% Tween-20, and 1% Normal Goat Serum. […] The mixture was then incubated for 30 minutes at room temperature. The cells were then washed twice with PBS, 0.1% Tween-20, and 1% Normal Goat Serum. 50-100 μL PBS was added, and the mixture was covered with a plate seal (Fisher, NC9425162). An ArrayScan (a variation of the compartmental analysis protocol was optimized) was used to scan the plates, and data was analyzed using MEAN_RingSpotAvgIntenCh2). The Axin2 accumulation POC was calculated, and the EC50 was determined using Genedata Screener software to report Axin2 activity.

Setting [3] is: SW480 cells, 40 to 48 hours, top concentration 10 μM, read-out: SW480-Total β-Catenin IC50 IP.
The mark [4] stands for this setting: SW480, 24 h, SW480 cells, 24 hours.
The mark [5] stands for this setting: SW480, read-out: SW480-Total β-Catenin IC50 IP.

With `CC1(C)OC(=O)N([C@H]2CC[C@H](n3c(=O)[nH]c4cnccc43)CC2)[C@H]1c1ccc(F)cc1` [Example 55, (S)-4-(4-Fluorophenyl)-5,5-dimethyl-3-((1r,4S)-4-(2-oxo-2,3-dihydro-1H-imidazo[4,5-c]pyridin-1-yl)cyclohexyl)oxazolidin-2-one], the half-maximal inhibitory concentration (IC50) came to 2.95 nM in experiment [1] and 145 nM in experiment [2] (setting [3]). Further, in the experiment with Axin2 in SW480 cells (setting [4]), the concentration giving a half-maximal response (EC50) was 100 nM.
In the same order, the values of `CC1(C)OC(=O)N(c2ccc(-n3c(=O)[nH]c4cnccc43)cc2)[C@H]1c1ccccc1` [Example 16, (S)-5,5-dimethyl-3-(4-(2-oxo-2,3-dihydro-1H-imidazo[4,5-c]pyridin-1-yl)phenyl)-4-phenyloxazolidin-2-one] are 114 nM, 2540 nM and 8190 nM.
In the same order, the values of `CC1(C)OC(=O)N([C@H]2CC=C(c3cc(-c4ncccn4)c[nH]c3=O)CC2)[C@H]1c1ccccc1` (single isomer, unassigned) [Example 6] are 46.8 nM, 585 nM and 2660 nM.
As to `CC1(C)OC(=O)N(c2ccc(-c3cc4ccncc4[nH]c3=O)cc2)[C@H]1c1ccccc1` [Example 88, (S)-5,5-dimethyl-3-(4-(2-oxo-1,2-dihydro-1,7-naphthyridin-3-yl)phenyl)-4-phenyloxazolidin-2-one], the results for the half-maximal inhibitory concentration (IC50) in experiment [1] and in experiment [2] (setting [3]) were 11.8 nM and 473 nM, respectively. Moreover, the EC50 with Axin2 in SW480 cells (setting [4]) turned out to be 285 nM.
In the same order, the values of `CC1(C)OC(=O)N([C@@H]2CC=C(c3cc(-c4ncccn4)c[nH]c3=O)CC2)[C@H]1c1ccccc1` (single isomer, unassigned) [Example 5] are 24.1 nM, 447 nM and 816 nM.
`CC1(C)OC(=O)N(c2ccc(-c3cnc(N)nc3)cc2)[C@H]1c1ccccc1` [Example 70, (S)-3-(4-(2-aminopyrimidin-5-yl)phenyl)-5,5-dimethyl-4-phenyloxazolidin-2-one]: the half-maximal inhibitory concentration (IC50) in experiment [1] was 1490 nM; in experiment [2] (setting [3]), more than 10000 nM. The EC50 in the experiment on Axin2 in SW480 cells (setting [4]) was more than 25000 nM.
With `CC1(C)OC(=O)N([C@H]2CC[C@H](c3cnc(N)c(-c4ncccn4)c3)CC2)[C@@H]1c1ccccc1` [Example 75, (R)-3-((1r,4R)-4-(6-amino-5-(pyrimidin-2-yl)pyridin-3-yl)cyclohexyl)-5,5-dimethyl-4-phenyloxazolidin-2-one], in experiment [2] (setting [5]), the 50% inhibitory concentration (IC50) is 1580 nM. The 50% effective concentration (EC50) with Axin2 in SW480 cells (SW480, 24 h) came to 2680 nM.
Turning to `CC1(C)OC(=O)N(C2CC=C(c3cnc(N)c(-c4ncccn4)c3)CC2)C1c1ccccc1` (centres unmarked) [Example 131, 3-(4-(6-amino-5-(pyrimidin-2-yl)pyridin-3-yl)cyclohex-3-en-1-yl)-5,5-dimethyl-4-phenyloxazolidin-2-one], the 50% inhibitory concentration (IC50) in experiment [1] is 16 nM; in experiment [2] (setting [3]), 362 nM. Further, the EC50 in the experiment on Axin2 in SW480 cells (setting [4]) came out at 1030 nM.
As to `CC1(C)OC(=O)N([C@H]2CC[C@H](n3c(=O)[nH]c4ncccc43)CC2)[C@@H]1c1ccccc1` [Example 31, (R)-5,5-dimethyl-3-((1r,4R)-4-(2-oxo-2,3-dihydro-1H-imidazo[4,5-b]pyridin-1-yl)cyclohexyl)-4-phenyloxazolidin-2-one], the half-maximal inhibitory concentration (IC50) in experiment [2] (setting [3]) was found to be 2660 nM. Moreover, the EC50 in the experiment with Axin2 in SW480 cells (setting [4]) was found to be 17500 nM.
`CC1(C)OC(=O)N([C@H]2CC[C@H](n3c(=O)[nH]c4c(F)c(C#N)ccc43)CC2)[C@H]1c1ccccc1` [Example 60, 1-((1S,4r)-4-((S)-5,5-dimethyl-2-oxo-4-phenyloxazolidin-3-yl)cyclohexyl)-4-fluoro-2-oxo-2,3-dihydro-1H-benzo[d]imidazole-5-carbonitrile]: the half-inhibitory concentration (IC50) in experiment [2] (setting [3]) was determined as 75.4 nM. In addition, the 50% effective concentration (EC50) in the experiment with Axin2 in SW480 cells (SW480 cells, 24 hours) stood at 61.4 nM.
For the compound `CC1(C)OC(=O)N([C@H]2CC[C@H](n3c(=O)[nH]c4cc(Cl)ccc43)CC2)[C@H]1c1ccccc1` [Example 29, (S)-3-((1r,4S)-4-(5-chloro-2-oxo-2,3-dihydro-1H-benzo[d]imidazol-1-yl)cyclohexyl)-5,5-dimethyl-4-phenyloxazolidin-2-one], the IC50 in experiment [2] (setting [3]) is 536 nM. Moreover, the EC50 in the experiment with Axin2 in SW480 cells (setting [4]) was found to be 2560 nM.
Regarding `CC1(C)OC(=O)N([C@H]2CC[C@H](n3c(=O)[nH]c4cc(C#N)cnc43)CC2)[C@H]1c1ccccc1` [Example 57, 3-((1S,4r)-4-((S)-5,5-dimethyl-2-oxo-4-phenyloxazolidin-3-yl)cyclohexyl)-2-oxo-2,3-dihydro-1H-imidazo[4,5-b]pyridine-6-carbonitrile], the IC50 in experiment [2] (setting [3]) was 172 nM. The concentration for a half-maximal effect (EC50) in the experiment with Axin2 in SW480 cells (SW480 cells, 24 hours) was 795 nM.
Take `CC1(C)OC(=O)N(c2ccc(-c3cc(-c4ncco4)c[nH]c3=O)cc2)[C@H]1c1ccccc1` [Example 116, (S)-5,5-dimethyl-3-(4-(5-(oxazol-2-yl)-2-oxo-1,2-dihydropyridin-3-yl)phenyl)-4-phenyloxazolidin-2-one]: the IC50 in experiment [2] (setting [3]) stood at 906 nM. Further, the EC50 in the experiment with Axin2 in SW480 cells (setting [4]) was more than 6250 nM.
In the same order, the values of `CC1(C)OC(=O)N([C@H]2CC[C@H](n3c(=O)[nH]c4cnccc43)CC2)[C@@H]1c1ccccc1` [Example 24, (R)-5,5-dimethyl-3-((1 r,4R)-4-(2-oxo-2,3-dihydro-1H-imidazo[4,5-c]pyridin-1-yl)cyclohexyl)-4-phenyloxazolidin-2-one] are 1480 nM and 4640 nM.
`CC1(C)OC(=O)N([C@H]2CC[C@H](n3c(=O)[nH]c4c(C#N)cccc43)CC2)[C@H]1c1ccccc1` [Example 51, 1-((1S,4r)-4-((S)-5,5-dimethyl-2-oxo-4-phenyloxazolidin-3-yl)cyclohexyl)-2-oxo-2,3-dihydro-1H-benzo[d]imidazole-4-carbonitrile]: the half-maximal inhibitory concentration (IC50) in experiment [2] (setting [3]) worked out at 274 nM. Moreover, the EC50 in the experiment on Axin2 in SW480 cells (SW480 cells, 24 hours) was 454 nM.
With `CC1(C)OC(=O)N([C@H]2CC[C@H](n3c(=O)[nH]c4cc(Br)cnc43)CC2)[C@H]1c1ccccc1` [Example 56, (S)-3-((1r,4S)-4-(6-bromo-2-oxo-1H-imidazo[4,5-b]pyridin-3(2H)-yl)cyclohexyl)-5,5-dimethyl-4-phenyloxazolidin-2-one], the half-inhibitory concentration (IC50) in experiment [2] (setting [3]) is 651 nM. In addition, in the experiment with Axin2 in SW480 cells (SW480 cells, 24 hours), the EC50 amounted to 676 nM.
With `CC1(C)OC(=O)N([C@H]2CC[C@H](c3cnc(N)c(-c4ncccn4)c3)CC2)[C@H]1c1ccccc1` [Example 74, (S)-3-((1r,4S)-4-(6-amino-5-(pyrimidin-2-yl)pyridin-3-yl)cyclohexyl)-5,5-dimethyl-4-phenyloxazolidin-2-one], in experiment [2] (setting [5]), the IC50 was found to be 90.8 nM. Also, the EC50 in the experiment with Axin2 in SW480 cells (SW480, 24 h) came to 51.9 nM.
`CC1(C)OC(=O)N([C@H]2CC[C@H](c3cnc(N)c(-c4ncccn4)c3)CC2)[C@H]1c1ccccc1` (racemic) [Example 73, 3-((1r,4r)-4-(6-amino-5-(pyrimidin-2-yl)pyridin-3-yl)cyclohexyl)-5,5-dimethyl-4-phenyloxazolidin-2-one]: in experiment [2] (setting [5]), the IC50 stood at 95.2 nM. The EC50 in the experiment on Axin2 in SW480 cells (SW480, 24 h) worked out at 202 nM.
As to `CC1(C)OC(=O)N([C@H]2CC[C@H](n3c(=O)[nH]c4cccnc43)CC2)C1c1ccccc1` (some centres unmarked) [Example 36, (R+S) 5,5-dimethyl-3-((1r,4r)-4-(2-oxo-1H-imidazo[4,5-b]pyridin-3(2H)-yl)cyclohexyl)-4-phenyloxazolidin-2-one], the IC50 in experiment [2] (setting [3]) is 1240 nM. Also, in the experiment with Axin2 in SW480 cells (setting [4]), the EC50 came to 4400 nM.
On to `CC1(C)OC(=O)N([C@H]2CC[C@H](n3c(=O)[nH]c4ncccc43)CC2)[C@H]1c1ccccc1` [Example 30, (S)-5,5-dimethyl-3-((1r,4S)-4-(2-oxo-2,3-dihydro-1H-imidazo[4,5-b]pyridin-1-yl)cyclohexyl)-4-phenyloxazolidin-2-one], for which the IC50 in experiment [2] (setting [3]) turned out to be 1120 nM. Also, the half-maximal effective concentration (EC50) in the experiment with Axin2 in SW480 cells (setting [4]) was determined as 1980 nM.

The values above are taken from patent US9340549B2, “Oxazolidinone compounds and derivatives thereof” (priority 2012, dated 2016).
